Assay results: ChEMBL document CHEMBL4334513, “Discovery of a Potent, Selective, and Orally Available MTHFD2 Inhibitor (DS18561882) with in Vivo Antitumor Activity” (J Med Chem, 2019)

Key:
[1] = Lipophilicity, logD of compound; assay type: physicochemical; conditions: octanol/water
[2] = Antiproliferative activity against human MDA-MB-231-luc-D3H2LN cells assessed as inhibition of growth after 3 days by CellTiter Glo assay; assay type: functional; conditions: 72 h
[3] = Lipophilicity, logP of compound; assay type: physicochemical; conditions: octanol/water
[4] = target: T1, C-1-tetrahydrofolate synthase, cytoplasmic (Homo sapiens, UniProt P11586)
T1 sequence (P11586 whole entry): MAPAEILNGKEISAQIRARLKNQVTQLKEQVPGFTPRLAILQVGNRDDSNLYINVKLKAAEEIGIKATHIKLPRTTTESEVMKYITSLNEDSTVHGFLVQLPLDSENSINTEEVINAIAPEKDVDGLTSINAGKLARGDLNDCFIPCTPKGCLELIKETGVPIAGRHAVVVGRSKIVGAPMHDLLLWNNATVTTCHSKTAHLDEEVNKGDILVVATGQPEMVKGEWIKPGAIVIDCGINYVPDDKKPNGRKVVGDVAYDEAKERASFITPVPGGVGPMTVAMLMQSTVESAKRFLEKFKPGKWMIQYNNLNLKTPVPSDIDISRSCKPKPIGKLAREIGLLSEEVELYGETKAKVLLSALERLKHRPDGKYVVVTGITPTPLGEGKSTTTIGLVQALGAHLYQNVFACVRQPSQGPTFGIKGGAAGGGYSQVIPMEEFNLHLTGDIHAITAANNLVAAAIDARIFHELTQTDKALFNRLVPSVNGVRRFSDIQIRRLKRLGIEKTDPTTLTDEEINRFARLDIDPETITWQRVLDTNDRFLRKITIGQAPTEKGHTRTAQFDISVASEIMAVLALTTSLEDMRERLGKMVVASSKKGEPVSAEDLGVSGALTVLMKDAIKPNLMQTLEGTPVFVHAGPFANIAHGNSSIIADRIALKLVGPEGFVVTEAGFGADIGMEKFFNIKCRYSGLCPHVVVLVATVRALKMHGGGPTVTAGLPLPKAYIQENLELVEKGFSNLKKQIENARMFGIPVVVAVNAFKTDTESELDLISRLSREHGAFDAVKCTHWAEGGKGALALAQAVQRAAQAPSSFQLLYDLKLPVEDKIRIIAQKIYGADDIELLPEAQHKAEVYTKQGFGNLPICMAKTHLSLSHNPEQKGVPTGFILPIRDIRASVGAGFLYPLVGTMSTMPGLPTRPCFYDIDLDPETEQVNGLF
Description: Inhibition of recombinant MTHFD1 (unknown origin) using THF as substrate incubated for 30 mins in presence of NAD

[5] = target: T2, Bifunctional methylenetetrahydrofolate dehydrogenase/cyclohydrolase, mitochondrial (Homo sapiens, UniProt P13995); test: Inhibition of recombinant MTHFD2 (unknown origin) using THF as substrate incubated for 30 mins in presence of NAD
T2 sequence (P13995 whole entry): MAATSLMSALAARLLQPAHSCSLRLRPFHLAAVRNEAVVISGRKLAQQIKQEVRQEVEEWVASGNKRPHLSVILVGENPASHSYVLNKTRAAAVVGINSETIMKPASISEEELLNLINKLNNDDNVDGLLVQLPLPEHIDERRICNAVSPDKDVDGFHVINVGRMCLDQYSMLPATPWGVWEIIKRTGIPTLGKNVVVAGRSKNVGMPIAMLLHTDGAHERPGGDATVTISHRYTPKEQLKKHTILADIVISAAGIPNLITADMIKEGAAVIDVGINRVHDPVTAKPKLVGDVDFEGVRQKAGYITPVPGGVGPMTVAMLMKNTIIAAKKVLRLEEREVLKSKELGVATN

[6] = Effective permeability of compound at pH 7.4 by PAMPA; assay type: ADME; conditions: read-out: Peff
[7] = Dissociation constant, acidic pKa of compound; assay type: physicochemical

`Cc1c(N2C[C@@H](C)N(C)[C@@H](C)C2)ccc2c3c(c(=O)oc12)CN(C(=O)c1ccc(NS(C)(=O)=O)c(Cl)c1)CC3` showed a logD [1] of 1.7, a GI50 [2] of 760 nM and a logP [3] of 2.2.
For `Cc1cccc2oc(=O)c3c(c12)CCN(C(=O)c1ccc(C(=O)O)cc1)C3`, the IC50 [4] was > 30000 nM and the IC50 [5] was 1300 nM.
`CN1CCC(Oc2ccc3c4c(c(=O)oc3c2)CN(C(=O)c2ccc(C(=O)O)cc2)CC4)CC1` gave an IC50 [4] of 27000 nM and an IC50 [5] of 390 nM.
Compound `Cc1cc(C(=O)N2CCc3c(c(=O)oc4c(C)c(N5CCN(C)CC5)ccc34)C2)ccc1NS(C)(=O)=O` has a Papp [6] of 23.1 ×10⁻⁶ cm/s, a GI50 [2] of 7700 nM and a logP [3] of 1.8. The IC50 [4] was > 30000 nM, the IC50 [5] was 530 nM and the pKa [7] was 8.3.
For `CN(C)CCOc1ccc2c3c(c(=O)oc2c1)CN(C(=O)c1ccc(C(=O)O)cc1)CC3`, the IC50 [4] was > 30000 nM and the IC50 [5] was 340 nM.
With `Cc1c(N2CCN(C)CC2)ccc2c3c(c(=O)oc12)CN(C(=O)c1ccc2c(c1)CS(=O)(=O)N2)CC3.O=C(O)C(F)(F)F` the Papp [6] was < 0.1 ×10⁻⁶ cm/s, the GI50 [2] was 19000 nM and the logP [3] was 1.6. The IC50 [4] was 5200 nM, the IC50 [5] was 18 nM and the pKa [7] was 5.7.
In the case of `CN1CCN(c2ccc3c4c(c(=O)oc3c2)CN(C(=O)c2ccc(C(=O)O)cc2)CC4)CC1`, the IC50 [4] is reported as > 30000 nM and the IC50 [5] is reported as 320 nM.
With `Cc1c(N2CCN(C)[C@H](C)C2)ccc2c3c(c(=O)oc12)CN(C(=O)c1ccc(NS(C)(=O)=O)c(Cl)c1)CC3` the GI50 [2] was 1700 nM, the logP [3] was 2 and the IC50 [5] was 130 nM.
`Cc1c(N2CCN(C)CC2)ccc2c3c(c(=O)oc12)CN(C(=O)c1ccc(NS(C)(=O)=O)cc1)CC3` gave a Papp [6] of 5.4 ×10⁻⁶ cm/s, a GI50 [2] of 6300 nM and a logP [3] of 1.6. For the same compound, the IC50 [4] was > 30000 nM, the IC50 [5] was 200 nM and the pKa [7] was 8.2.
In the case of `COc1cc(C(=O)N2CCc3c(c(=O)oc4c(C)c(N5CCN(C)CC5)ccc34)C2)ccc1NS(C)(=O)=O`, the Papp [6] is reported as 44.2 ×10⁻⁶ cm/s, the GI50 [2] is reported as 10000 nM and the logP [3] is reported as 1.6. For the same compound, the IC50 [4] was > 30000 nM, the IC50 [5] was 400 nM and the pKa [7] was 8.4.
Compound `Cc1c(OCCN(C)C)ccc2c3c(c(=O)oc12)CN(C(=O)c1ccc(C(=O)O)cc1)CC3` has an IC50 [4] of 5000 nM and an IC50 [5] of 49 nM.
